Results reported in US20220204510A1, “2,3-DIHYDRO-1H-PYRROLIZINE-7-FORMAMIDE DERIVATIVE AND APPLICATION THEREOF” (CHIA TAI TIANQING PHARMACEUTICAL GROUP CO., LTD., priority 2018, published 2022).

How the values were obtained:
[1] = Experiment on cytotoxicity (CellTiter-Glo, 3 days); type: cell-based; details: 3 days incubation, read-out: 50% cytotoxic concentration (CC50)
Experimental: • 1. The compound was diluted with DMSO (dimethyl sulfoxide) in a 3-fold gradient for 9 concentrations, and added into a 96-well plate in duplicate. The compound concentration was 200-fold of the final test concentration. • 2. The cells were rinsed with PBS (phosphate buffered saline) once, added with 0.25% trypsin and digested for about 2-5 min in a 37° C., 5% CO2 incubator. Then the digestion was terminated with a cell culture medium and the cells were dispersed into single cells by pipetting with a pipettor. • 3. The cell density was counted with a cell counter, and adjusted to the required density with the medium. • 4. The cells were added into a 96-well plate that had been added with the compound. The final concentration of DMSO in each well was 0.5%. Wells containing 0.5% DMSO were used as non-toxic negative controls, and wells containing the cell culture medium were used as 100% cytotoxicity controls. Then the cell plate was incubated in a 37° C., 5% CO2 cell incubator for 3 days. • 5. The chemiluminescence signal (RLU, relative chemiluminescence unit) of each well in the cell plate was detected with the cell viability detection kit CellTiter-Glo using the multi-functional microplate reader Envision, with instructions on the kit followed. • 6. The raw data (RLU) were substituted into the following formula to calculate the cell viability of each well (cell viability %): […]

[2] = Pharmacokinetic study in Balb/c mice by oral administration and intravenous injection; type: in vivo; details: mouse, plasma, Balb/c female mice; for bioavailability / AUC / Cmax / Tmax: 3 mg/kg; for bioavailability: PO (3 mpk) vs IV (1 mg/kg), read-out: Bioavailability F; for AUC / Cmax / Tmax: PO (3 mpk); for AUC: read-out: Area under the plasma concentration-time curve AUC; for Cmax: read-out: Peak concentration Cmax; for Tmax: read-out: Peak time Tmax; for Vd / AUC(0-t) / clearance / half-life: IV (1 mg/kg); for Vd: read-out: Apparent volume of distribution Vdss; for AUC(0-t): read-out: Area under the plasma concentration-time curve AUC0-24 h; for clearance: read-out: Clearance CL; for half-life: read-out: Half-life T1/2 (converted)
Experimental: Pharmacokinetic study of the test compound in Balb/c mice by oral administration and intravenous injection: The test compound was mixed with a solution containing dimethyl sulfoxide (10%), polyethylene glycol 400 (60%) and water (30%), and the mixture was vortexed and sonicated to prepare a 0.2 mg/mL clear solution, which was filtered through a millipore filter for later use. Balb/c female mice aged 7 to 10 weeks were intravenously injected with the candidate compound solution at a dose of 1 mg/kg. The test compound was mixed with an aqueous solution containing 10% polyoxyethylene stearate, and the mixture was vortexed and sonicated to prepare a 0.3 mg/mL clear solution for later use. Balb/c female mice aged 7 to 10 weeks were orally administered with the candidate compound solution at a dose of 3 mg/kg. Whole-blood was collected and plasma was prepared. Drug concentration was analyzed by LC-MS/MS and pharmacokinetic parameters were calculated with Phoenix WinNonlin software.

hERG potassium channel = hERG potassium channel (Homo sapiens, UniProt Q12809); assay: Inhibition test of the hERG potassium channel (automatic patch clamp, CHO-hERG cells); type: cell-based; details: QPatch whole-cell patch clamp, room temperature
Experimental: To assay the effect of the compound disclosed herein on hERG potassium channel by using automatic patch-clamp method.
The cells stably expressing the hERG potassium channel used in the experiment were CHO-hERE from Aviva Biosciences. CHO-hERG was cultured at 37° C. in 5% CO2.
The CHO-hERG cells used in the experiment were cultured for at least two days, and the cell density reached 75% or more. Before the experiment, the cells were digested with TrypLE, and then the collected cells were resuspended in extracellular fluid.
The extracellular fluid needed to be prepared once a month. The intracellular fluid must be frozen in aliquots at −20° C.
The test compound and its positive control amitriptyline were dissolved in DMSO to obtain a stock solution at a certain concentration. […]
With a holding potential of −80 mv, a voltage stimulation of −50 my was applied for 80 ms to record the cell leakage current value; then hERG channel was opened by a depolarization to +20 my for 4800 ms and hERG tail current was elicited by a repolarization to −50 my for 5000 ms and recorded; and finally, the voltage was restored to the holding potential of −80 my and maintained for 3100 ms. […]
In each complete current recording, the inhibition percentage of each compound at the action concentration could be calculated based on the percentage of peak current in the negative control. […]

[3] = Experiment on the liver-to-blood ratio in Balb/c mice, oral administration; type: in vivo; details: oral 3 mg/kg, Balb/c female mice; for AUC0-last: Liver; for Kp / AUC(0-t): mouse; for Kp: liver (tissue homogenate) / plasma, read-out: AUC Ratio (L/P) Liver/plasma exposure ratio; for AUC(0-t): Plasma
Experimental: Experiment on the liver-to-blood ratio in Balb/c mice orally administered with the test compound Compound 18 was mixed with an aqueous solution containing 10% polyethylene glycol-15 hydroxystearate, and the mixture was vortexed and sonicated to prepare a 0.3 mg/mL uniform suspension for later use. Balb/c female mice aged 7 to 10 weeks were orally administered with the candidate compound solution at a dose of 3 mg/kg. Whole blood at a certain time point was collected and plasma was prepared. Liver tissues at the corresponding time point were collected to prepare a tissue homogenate. Drug concentration was analyzed by LC-MS/MS and pharmacokinetic parameters were calculated with Phoenix WinNonlin software. Compound 25 was mixed with an aqueous solution containing 10% polyethylene glycol-15 hydroxystearate, and the mixture was vortexed and sonicated to prepare a 0.3 mg/mL clear solution for later use. Balb/c female mice aged 7 to 10 weeks were orally administered with the candidate compound solution at a dose of 3 mg/kg. Whole blood at a certain time point was collected and plasma was prepared. Liver tissues at the corresponding time point were collected to prepare a tissue homogenate. Drug concentration was analyzed by LC-MS/MS and pharmacokinetic parameters were calculated with Phoenix WinNonlin software.

Sequence of hERG potassium channel (Q12809 whole entry): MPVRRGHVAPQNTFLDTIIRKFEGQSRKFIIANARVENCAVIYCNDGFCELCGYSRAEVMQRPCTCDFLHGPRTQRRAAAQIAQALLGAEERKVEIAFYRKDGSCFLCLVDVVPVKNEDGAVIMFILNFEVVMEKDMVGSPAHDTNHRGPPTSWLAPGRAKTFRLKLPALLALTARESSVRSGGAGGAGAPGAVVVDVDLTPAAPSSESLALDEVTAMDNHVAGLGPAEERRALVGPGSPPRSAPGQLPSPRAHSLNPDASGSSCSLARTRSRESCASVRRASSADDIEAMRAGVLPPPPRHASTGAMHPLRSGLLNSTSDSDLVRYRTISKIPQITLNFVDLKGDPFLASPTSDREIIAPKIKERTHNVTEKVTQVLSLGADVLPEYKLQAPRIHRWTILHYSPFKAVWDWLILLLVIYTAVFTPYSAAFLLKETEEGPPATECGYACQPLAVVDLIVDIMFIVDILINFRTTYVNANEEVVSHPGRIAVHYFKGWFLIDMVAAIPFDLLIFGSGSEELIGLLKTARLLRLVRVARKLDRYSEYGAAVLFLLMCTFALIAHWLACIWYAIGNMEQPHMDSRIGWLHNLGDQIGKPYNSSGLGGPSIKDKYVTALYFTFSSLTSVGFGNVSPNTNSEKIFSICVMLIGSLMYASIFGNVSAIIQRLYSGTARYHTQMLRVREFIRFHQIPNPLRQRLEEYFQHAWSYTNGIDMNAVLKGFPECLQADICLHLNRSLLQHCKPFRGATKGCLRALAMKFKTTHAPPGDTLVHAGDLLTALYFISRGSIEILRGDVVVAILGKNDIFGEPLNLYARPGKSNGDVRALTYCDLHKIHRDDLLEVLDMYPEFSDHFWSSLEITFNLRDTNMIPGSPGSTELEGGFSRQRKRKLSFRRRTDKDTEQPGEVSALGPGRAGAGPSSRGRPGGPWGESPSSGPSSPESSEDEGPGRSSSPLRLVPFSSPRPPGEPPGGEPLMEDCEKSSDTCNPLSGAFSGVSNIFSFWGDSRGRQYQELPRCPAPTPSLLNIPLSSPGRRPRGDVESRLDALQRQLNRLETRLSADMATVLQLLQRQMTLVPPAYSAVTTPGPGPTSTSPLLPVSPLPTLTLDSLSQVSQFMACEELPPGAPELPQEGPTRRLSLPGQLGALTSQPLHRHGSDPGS

SMILES	CC50 at 3 days [1] [µM]	bioavailability [2] [%]	AUC [2] [µM·h]	Cmax [2] [nM]	Tmax [2] [h]	Vd [2] [L/kg]	AUC(0-t) [2] [µM·h]	clearance [2] [mL/min/kg]	half-life [2] [h]	IC50 (hERG potassium channel) [µM]	AUC0-last [3] [nmol·h/kg]	Kp [3]	AUC(0-t) [3] [µM·h]
C[C@]1(NC(=O)C(=O)c2c(Cl)c(C(=O)Nc3ccc(F)c(F)c3)c3n2CCC3)CC[C@H](CC(=O)O)CC1 [Compound 18]	> 50	271	5.02	1460	0.5	8.8	0.617	50.1	2.8	> 40	75412	20.4	3.69
C[C@]1(NC(=O)C(=O)c2c(Cl)c(C(=O)Nc3cc(F)c(F)c(F)c3)c3n2CCC3)CC[C@H](CC(=O)O)CC1 [Compound 25]	> 50	51	2.27	1480	0.5	3.1	1.49	20	1.95	> 40	86036	24.7	3.48
